Data from US20070092460A1, “Silylated compounds as precursors for self-tanning compositions” (priority 2000, published 2007).

Assay: in vitro colour development test with lysine solution (Bobin et al.)
Experimental: 0.02 mol/l of lysine are dissolved in a phosphate buffer system in accordance with DIN 19268 (pH 7). 10 ml of this solution are treated with 0.002 mol of 1,3-bis(trimethylsiloxy)-2-propanone and the mixture is stirred at 32-35° C. for 72 h.
As comparison, 10 ml of the lysine solution are treated with 0.002 mol of dihydroxyacetone and stirred at 32-35° C. for 72 h.

C[Si](C)(C)OCC(=O)CO[Si](C)(C)C [1,3-bis(trimethylsiloxy)-2-propanone, 1,3-bis(Trimethylsiloxy)-2-propanone]
brown coloration (0.002 mol substance in 10 ml of 0.02 mol/l lysine in phosphate buffer pH 7, stirred at 32-35° C. for 72 h): comparable brown coloration
rate of development of the brown coloration (compared with dihydroxyacetone, lysine in phosphate buffer pH 7, 32-35° C.): develops more slowly
